Reference: US10369149B2, “4-(2-amino-tetrahydronaphthalenyl)pyrimidine derivative, preparation method therefor, and pharmaceutical composition for preventing or treating cancer, containing same as active ingredient” (KOREA RESEARCH INSTITUTE OF CHEMICAL TECHNOLOGY, priority 2015, dated 2019)
Where two headings read alike, the source gives them in different places.

Columns and labels:
ALK enzyme = ALK enzyme (Homo sapiens, UniProt Q9UM73); experiment: Anaplastic lymphoma kinase (ALK) inhibitory activity, HTRF kinase assay; format: biochemical
Chain of ALK enzyme (Q9UM73 19-1620): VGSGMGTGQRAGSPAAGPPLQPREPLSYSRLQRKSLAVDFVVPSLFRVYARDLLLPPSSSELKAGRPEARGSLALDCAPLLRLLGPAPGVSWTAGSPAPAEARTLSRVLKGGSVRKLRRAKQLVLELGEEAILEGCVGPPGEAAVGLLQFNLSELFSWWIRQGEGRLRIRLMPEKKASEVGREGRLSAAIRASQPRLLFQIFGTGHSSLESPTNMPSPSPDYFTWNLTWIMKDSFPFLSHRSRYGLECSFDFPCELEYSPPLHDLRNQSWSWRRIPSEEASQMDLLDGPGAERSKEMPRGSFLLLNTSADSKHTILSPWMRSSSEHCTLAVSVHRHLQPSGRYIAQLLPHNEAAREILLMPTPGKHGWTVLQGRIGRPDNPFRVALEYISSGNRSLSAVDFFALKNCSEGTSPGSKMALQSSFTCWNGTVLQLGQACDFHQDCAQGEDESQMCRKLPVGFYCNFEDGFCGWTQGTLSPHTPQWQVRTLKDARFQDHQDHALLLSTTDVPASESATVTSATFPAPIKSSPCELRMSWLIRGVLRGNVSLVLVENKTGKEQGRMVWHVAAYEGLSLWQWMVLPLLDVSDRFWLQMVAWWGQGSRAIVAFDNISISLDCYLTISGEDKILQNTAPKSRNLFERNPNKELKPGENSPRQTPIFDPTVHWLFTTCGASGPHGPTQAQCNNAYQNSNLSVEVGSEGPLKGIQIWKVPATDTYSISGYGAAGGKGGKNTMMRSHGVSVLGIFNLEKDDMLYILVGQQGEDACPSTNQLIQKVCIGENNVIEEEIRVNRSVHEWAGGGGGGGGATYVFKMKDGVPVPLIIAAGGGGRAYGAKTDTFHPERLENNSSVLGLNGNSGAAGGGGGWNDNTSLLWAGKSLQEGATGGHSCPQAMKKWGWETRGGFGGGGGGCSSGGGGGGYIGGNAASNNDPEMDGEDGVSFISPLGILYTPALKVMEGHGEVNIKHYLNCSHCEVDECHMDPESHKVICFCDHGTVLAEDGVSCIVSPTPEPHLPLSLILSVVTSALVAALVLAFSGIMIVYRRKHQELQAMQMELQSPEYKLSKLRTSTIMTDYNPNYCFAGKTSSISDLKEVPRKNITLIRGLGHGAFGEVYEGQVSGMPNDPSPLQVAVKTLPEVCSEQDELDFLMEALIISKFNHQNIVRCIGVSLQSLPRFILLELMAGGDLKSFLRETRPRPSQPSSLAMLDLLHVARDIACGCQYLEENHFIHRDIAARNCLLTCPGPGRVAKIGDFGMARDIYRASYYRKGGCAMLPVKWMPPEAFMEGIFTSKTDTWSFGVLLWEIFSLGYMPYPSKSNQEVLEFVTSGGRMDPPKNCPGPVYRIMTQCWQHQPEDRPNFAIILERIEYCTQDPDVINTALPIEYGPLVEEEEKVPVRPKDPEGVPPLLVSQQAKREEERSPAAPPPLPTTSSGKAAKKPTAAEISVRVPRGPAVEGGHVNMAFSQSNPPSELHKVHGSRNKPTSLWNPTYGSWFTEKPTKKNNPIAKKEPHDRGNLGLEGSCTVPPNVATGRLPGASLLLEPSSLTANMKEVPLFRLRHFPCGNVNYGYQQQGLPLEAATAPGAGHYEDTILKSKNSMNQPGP

[1] = tested on: ALK L1196M cells containing ALK enzyme; experiment: ALK inhibitory activity in ALK L1196M cells, SRB staining of live cells; format: cell-based
Experimental: DMSO (dimethylsulfoxide) was added to the well that was not loaded with the compound by the same amount as the compound. Three days after the addition of the compound, DMEM was eliminated. 10% TCA (trichloroacetic acid) was added to fix the cells. The wells were washed with running water three times and the live cells were stained with SRB solution (1× sulphorodamine B). Then, OD was measured to calculate the population of the live cells. IC50 of the experimental compound used in the experiment above was calculated by using prism software (Version 5.01, Graphpad). […] Table 2 presents the ALK inhibitory activity of the compounds of the examples of the present invention in ALK L1196M containing ALK enzyme.

[2] = tested on: H3122, the non-small cell lung cancer cell line; experiment: ALK inhibitory activity in H3122, SRB staining of live cells; format: cell-based; details: Homo sapiens
Experimental: […] One day later, the compound of the present invention was added to each well at different concentrations of 10 μM, 2 μM, 0.4 μM, 0.08 μM, […], and 0.00032 μM. DMSO (dimethylsulfoxide) was added to the well that was not loaded with the compound by the same amount as the compound. Three days after the addition of the compound, DMEM was eliminated. 10% TCA (trichloroacetic acid) was added to fix the cells. The wells were washed with running water three times and the live cells were stained with SRB solution (1× sulphorodamine B). Then, OD was measured to calculate the population of the live cells. IC50 of the experimental compound used in the experiment above was calculated by using prism software (Version 5.01, Graphpad).
Table 2 presents the ALK inhibitory activity of the compounds of the examples of the present invention in H3122 containing ALK enzyme.

[3] = tested on: human non-small cell lung cancer cell line H3122; experiment: In vivo xenograft evaluation for H3122 induced lung cancer; parameters: species or system nude mice (BALB/c nu/nu, female); details: H3122 xenograft s.c. in nude mice, oral, q.d.×14, FIGS. 1 and 2
Source text: The nude mice (BALB/c nu/nu, female) used in this experiment were purchased from Charles River Japan, Inc. and raised and tested under SPF (Specific Pathogen Free) control. The human non-small cell lung cancer cell line H3122 maintained by Korea Research Institute of Chemical Technology was used in this experiment. The female nude mice adapted to the laboratory were implanted with cancer. Particularly, H3122 cells grown to the appropriate size for passage were cut into 3×3×3 mm^3, which was transplanted (s.c.) under the right side of the nude mouse. […] For the control, 20% PEG 400+3% Tween 80 in DDW was orally administered. For the experimental group (7 mice/group), the compound was dissolved in the same solvent of the control, which was orally administered 14 times in total (q.d.×14). The size of the cancer was measured every 2˜3 days after the administration using a caliper and the diameters (long diameter (a), short diameter (b)) of the cancer were measured. The size of the cancer (volume, V) was calculated according to mathematical formula 1. Volume (mm^3)=a×b^2/2 [Mathematical Formula 1] FIG. 1 is a graph showing the results of observing the size of cancer in the control group (CONTROL), the LDK378-treated group, and the group treated with the compound of example 14 over the time. […]

Ba/F3 EML4-ALK L1196M = Ba/F3 EML4-ALK L1196M (Homo sapiens, UniProt Q9UM73, L1196M, cells depend on it); experiment: ALK inhibitory activity in Ba/F3 EML4-ALK L1196M, SRB staining of live cells; details: read-out: Ba/F3 EML4-ALK L1196M, three days
Chain of Ba/F3 EML4-ALK L1196M (Q9UM73 whole entry L1196M): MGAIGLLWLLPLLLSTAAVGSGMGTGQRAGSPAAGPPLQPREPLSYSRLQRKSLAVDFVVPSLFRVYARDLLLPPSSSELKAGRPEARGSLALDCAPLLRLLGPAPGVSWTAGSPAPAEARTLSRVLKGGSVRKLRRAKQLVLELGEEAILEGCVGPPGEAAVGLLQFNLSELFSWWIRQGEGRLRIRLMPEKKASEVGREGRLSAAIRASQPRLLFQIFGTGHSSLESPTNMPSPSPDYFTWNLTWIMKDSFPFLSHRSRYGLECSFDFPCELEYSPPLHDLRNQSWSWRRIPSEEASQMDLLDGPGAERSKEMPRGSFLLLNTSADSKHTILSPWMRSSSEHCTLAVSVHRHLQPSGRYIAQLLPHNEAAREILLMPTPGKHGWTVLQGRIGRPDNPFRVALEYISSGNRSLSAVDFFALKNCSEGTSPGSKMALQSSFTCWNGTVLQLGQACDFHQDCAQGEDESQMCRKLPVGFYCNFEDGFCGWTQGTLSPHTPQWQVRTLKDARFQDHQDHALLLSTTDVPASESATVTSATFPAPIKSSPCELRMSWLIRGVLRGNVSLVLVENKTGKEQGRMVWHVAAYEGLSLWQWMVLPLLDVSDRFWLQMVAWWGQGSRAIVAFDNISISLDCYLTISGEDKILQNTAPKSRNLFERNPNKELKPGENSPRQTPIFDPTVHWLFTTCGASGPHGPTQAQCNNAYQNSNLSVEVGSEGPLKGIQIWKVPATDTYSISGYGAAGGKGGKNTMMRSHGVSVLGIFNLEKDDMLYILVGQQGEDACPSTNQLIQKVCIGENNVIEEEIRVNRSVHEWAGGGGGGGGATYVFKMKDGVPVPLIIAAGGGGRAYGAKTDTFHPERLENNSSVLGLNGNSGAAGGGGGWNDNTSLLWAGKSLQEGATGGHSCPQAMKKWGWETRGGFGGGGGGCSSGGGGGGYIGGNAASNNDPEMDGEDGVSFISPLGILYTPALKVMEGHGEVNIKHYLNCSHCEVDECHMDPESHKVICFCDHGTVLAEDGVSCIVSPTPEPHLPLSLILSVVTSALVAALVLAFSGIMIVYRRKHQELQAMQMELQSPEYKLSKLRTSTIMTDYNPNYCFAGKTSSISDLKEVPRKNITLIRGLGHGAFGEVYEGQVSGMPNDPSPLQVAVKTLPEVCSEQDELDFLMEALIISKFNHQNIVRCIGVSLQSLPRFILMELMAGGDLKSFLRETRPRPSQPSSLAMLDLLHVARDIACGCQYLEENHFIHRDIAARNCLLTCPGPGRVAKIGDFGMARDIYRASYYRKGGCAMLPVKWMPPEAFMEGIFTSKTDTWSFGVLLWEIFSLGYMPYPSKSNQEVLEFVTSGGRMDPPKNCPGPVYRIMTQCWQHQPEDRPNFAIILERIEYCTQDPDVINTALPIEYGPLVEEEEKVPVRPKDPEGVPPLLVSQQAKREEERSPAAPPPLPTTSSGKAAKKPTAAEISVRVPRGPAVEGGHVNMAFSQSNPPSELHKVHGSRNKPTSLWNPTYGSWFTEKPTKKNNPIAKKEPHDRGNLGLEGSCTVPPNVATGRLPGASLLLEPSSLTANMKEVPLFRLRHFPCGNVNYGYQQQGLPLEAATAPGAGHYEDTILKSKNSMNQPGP
Experimental: Particularly, 4,000 ALK L1196M cells containing ALK enzyme were distributed in each well of a 96 well plate together with 100 μl of DMEM (Dulbecco's Modified Eagle's Medium). […] DMSO (dimethylsulfoxide) was added to the well that was not loaded with the compound by the same amount as the compound. Three days after the addition of the compound, DMEM was eliminated. 10% TCA (trichloroacetic acid) was added to fix the cells. The wells were washed with running water three times and the live cells were stained with SRB solution (1× sulphorodamine B). Then, OD was measured to calculate the population of the live cells.

[4] = read-out: anaplastic lymphoma kinase (ALK) inhibitory activity at the concentration
[5] = 72 h, ALK L1196M cells, three days, SRB, read-out: ALK L1196M
[6] = ALK L1196M cells, read-out: ALK inhibitory activity in ALK L1196M containing ALK enzyme at the concentration
[7] = NCI-H3122, 72 h, three days, SRB, read-out: Non-small cell lung cancer cell line H3122
[8] = NCI-H3122, read-out: ALK inhibitory activity in H3122 containing ALK enzyme at the concentration range

| SMILES | IC50 (ALK enzyme; HTRF, read-out: ALK) | IC50 (ALK enzyme; [4]) | IC50 [1, 5] | IC50 [1, 6] | IC50 [2, 7] | IC50 [2, 8] | effect of inhibiting cancer size [3] | GI50 (Ba/F3 EML4-ALK L1196M) | IC50 ([1]; 72 h, read-out: ALK L1196M) |
| --- | --- | --- | --- | --- | --- | --- | --- | --- | --- |
| COc1cc2c(cc1Nc1ncc(Cl)c(Nc3ccccc3S(=O)(=O)C(C)C)n1)CC/C(=N\N1CCN(C)CC1)C2(C)C [Example 14, (E)-5-chloro-N4-(2-(isopropylsulfonyl)phenyl)-N2-(3-methoxy-5,5-dimethyl-6-(4-methylpiperazine-1-ylimino)-5,6,7,8-tetrahydronaphthalene-2-yl)pyrimidine-2,4-diamine] | < 10 nM | ≤ 10 nM | < 10 nM | ≤ 10 nM | 10 to 100 nM | 10 to 100 nM | excellent, similar to LDK378 | 10 to 100 nM |  |
| COc1cc2c(cc1Nc1ncc(Cl)c(Nc3ccccc3S(=O)(=O)C(C)C)n1)C(C)(C)/C(=N/N1CCOCC1)CC2 [Example 17, (E)-5-chloro-N4-(2-(isopropylsulfonyl)phenyl)-N2-(3-methoxy-8,8-dimethyl-7-(morpholinoimino)-5,6,7,8-tetrahydronaphthalene-2-yl)pyrimidine-2,4-diamine] | > 100 nM |  | > 100 nM |  | > 100 nM |  |  | > 100 nM |  |
| COc1cc2c(cc1Nc1ncc(Cl)c(Nc3ccccc3S(=O)(=O)C(C)C)n1)C(C)(C)/C(=N/NC(=N)N)CC2 [Example 18, (E)-2-(7-(5-chloro-4-(2-(isopropylsulfonyl)phenylamino)pyrimidine-2-ylamino)-6-methoxy-1,1-dimethyl-3,4-dihydronaphthalene-2(1H)-yladene)hydrogencarboxamideamide] | 10 to 100 nM |  | 10 to 100 nM |  | > 100 nM |  |  | > 100 nM |  |
| COc1cc2c(cc1Nc1ncc(Cl)c(Nc3ccccc3S(=O)(=O)C(C)C)n1)C(C)(C)/C(=N/N1CCN(C)CC1)CC2 [Example 19, (E)-5-chloro-N4-(2-(isopropylsulfonyl)phenyl)-N2-(3-methoxy-8,8-dimethyl-7-(4-methylpiperazine-1-ylimino)-5,6,7,8-tetrahydronaphthalene-2-yl)pyrimidine-2,4-diamine] | 10 to 100 nM |  | > 100 nM |  | > 100 nM |  |  | > 100 nM |  |
| COc1cc2c(cc1Nc1ncc(Cl)c(Nc3ccccc3S(=O)(=O)C(C)C)n1)C(C)(C)/C(=N/NC(C)=O)CC2 [Example 20, (E)-N-(7-(5-chloro-4-(2-(isopropylsulfonyl)phenylamino)pyrimidine-2-ylamino)-6-methoxy-1,1-dimethyl-3,4-dihydronaphthalene-2(1H)-yladene)acetohydrazide] | 10 to 100 nM |  | > 100 nM |  | > 100 nM |  |  | > 100 nM |  |
| COc1cc2c(cc1Nc1ncc(Cl)c(Nc3ccccc3S(=O)(=O)C(C)C)n1)C(C)(C)/C(=N/NC(N)=O)CC2 [Example 21, (E)-2-(7-(5-chloro-4-(2-(isopropylsulfonyl)phenylamino)pyrimidine-2-ylamino)-6-methoxy-1,1-dimethyl-3,4-dihydronaphthalene-2(1H)-yladene)hydragencarboxamide] | < 10 nM | ≤ 10 nM | 10 to 100 nM |  | > 100 nM |  |  | > 100 nM |  |
| COc1cc2c(cc1Nc1ncc(Cl)c(Nc3ccccc3S(=O)(=O)C(C)C)n1)CCC(N)C2(C)C (centres unmarked) [Example 22, N2-(6-amino-3-methoxy-5,5-dimethyl-5,6,7,8-tetrahydronaphthalene-2-yl)-5-chloro-N4-(2-(isopropylsulfonyl)phenyl)pyrimidine-2,4-diamine] | < 10 nM | ≤ 10 nM | < 10 nM | ≤ 10 nM | 10 to 100 nM | 10 to 100 nM | excellent, similar to LDK378 | 10 to 100 nM |  |
| COc1cc2c(cc1Nc1ncc(Cl)c(Nc3ccccc3S(=O)(=O)C(C)C)n1)C(C)(C)C(N)CC2 (centres unmarked) [Example 23, N2-(7-amino-3-methoxy-8,8-dimethyl-5,6,7,8-tetrahydronaphthalene-2-yl)-5-chloro-N4-(2-(isopropylsulfonyl)phenyl)pyrimidine-2,4-diamine] | 10 to 100 nM |  |  |  | > 100 nM |  |  | > 100 nM | 10 to 100 nM |
| COc1cc2c(cc1Nc1ncc(Cl)c(Nc3ccccc3S(=O)(=O)C(C)C)n1)CCC(O)C2(C)C (centres unmarked) [Example 24, 6-(5-chloro-4-(2-(isopropylsulfonyl)phenylamino)pyrimidine-2-ylamino)-7-methoxy-1,1-dimethyl-1,2,3,4-tetrahydronaphthalene-2-ol] | 10 to 100 nM |  | 10 to 100 nM |  | 10 to 100 nM | 10 to 100 nM |  | > 100 nM |  |
| COc1cc2c(cc1Nc1ncc(Cl)c(Nc3ccccc3S(=O)(=O)C(C)C)n1)C(C)(C)C(O)CC2 (centres unmarked) [Example 25, 7-(5-chloro-4-(2-(isopropylsulfonyl)phenylamino)pyrimidine-2-ylamino)-6-methoxy-1,1-dimethyl-1,2,3,4-tetrahydronaphthalene-2-ol] | 10 to 100 nM |  | 10 to 100 nM |  | > 100 nM |  |  | > 100 nM |  |
| COc1cc2c(cc1Nc1ncc(Cl)c(Nc3ccccc3S(=O)(=O)C(C)C)n1)CCC(NC(=O)CO)C2(C)C (centres unmarked) [Example 26, N-(6-(5-chloro-4-(2-(isopropylsulfonyl)phenylamino)pyrimidine-2-ylamino)-7-methoxy-1,1-dimethyl-1,2,3,4-tetrahydronaphthalene-2-yl)-2-hydroxyacetamide] | < 10 nM | ≤ 10 nM | < 10 nM | ≤ 10 nM | 10 to 100 nM | 10 to 100 nM |  | 10 to 100 nM |  |
| COc1cc2c(cc1Nc1ncc(Cl)c(Nc3ccccc3S(=O)(=O)C(C)C)n1)CCC(NC(=O)CN(C)C)C2(C)C (centres unmarked) [Example 27, N-(6-(5-chloro-4-(2-(isopropylsulfonyl)phenylamino)pyrimidine-2-ylamino)-7-methoxy-1,1-dimethyl-1,2,3,4-tetrahydronaphthalene-2-yl)-2-(dimethylamino)acetamide] | < 10 nM | ≤ 10 nM | < 10 nM | ≤ 10 nM | 10 to 100 nM | 10 to 100 nM |  | 10 to 100 nM |  |
| COc1cc2c(cc1Nc1ncc(Cl)c(Nc3ccccc3S(=O)(=O)C(C)C)n1)CCC(N(C)C)C2(C)C (centres unmarked) [Example 28, 5-chloro-N2-(6-(dimethylamino)-3-methoxy-5,5-dimethyl-5,6,7,8-tetrahydronaphthalene-2-yl)-N4-(2-(isopropylsulfonyl)phenyl)pyrimidine-2,4-diamine] | < 10 nM | ≤ 10 nM | < 10 nM | ≤ 10 nM | 10 to 100 nM | 10 to 100 nM |  | 10 to 100 nM |  |
